Measurements as given in ChEMBL document CHEMBL1141107, “A novel series of non-carboxylic acid, non-hydantoin inhibitors of aldose reductase with potent oral activity in diabetic rat models: 6-(5-chloro-3-methylbenzofuran-2-sulfonyl)-2H-pyridazin-3-one and congeners” (J Med Chem, 2005).
pIC50: −log10 of the molar value.

Assays:
[1] = molecular target: Aldo-keto reductase family 1 member B1 (Homo sapiens, UniProt P15121); test: In vitro inhibitroy concentration against Aldose reductase incubated at 24 degree C for 15 minutes in pH 7.0
Rattus norvegicus [2] = test: Inhibition of fructose accumulation in diabetic rat after oral gavage administration incubated at RT for 60 minutes in pH 4.5 by acute test; dosed at 10 mg/kg; assay type: functional; conditions: 1 h
Rattus norvegicus [3] = test: Inhibition of fructose accumulation in diabetic rat after oral gavage administration incubated at RT for 60 minutes in pH 4.5 by acute test; dosed at 20 mg/kg; assay type: functional; conditions: 1 h
Rattus norvegicus [4] = test: Inhibition of sorbitol accumulation in diabetic rat by acute test; dosed at 10 mg/kg; assay type: functional
Rattus norvegicus [5] = test: Inhibition of sorbitol accumulation in diabetic rat by acute test; dosed at 20 mg/kg; assay type: functional
Rattus norvegicus [6] = test: Inhibition of sorbitol accumulation in diabetic rat by acute test dosed at 30 mg/kg; assay type: functional
Rattus norvegicus [7] = test: Inhibition of sorbitol accumulation in diabetic rat by chronic test does at 20 mg/kg; assay type: functional
Rattus norvegicus [8] = test: Inhibition of fructose accumulation in diabetic rat after oral gavage administration incubated at RT for 60 minutes in pH 4.5 by acute test dosed at 20 mg/kg; assay type: functional; conditions: 1 h
Rattus norvegicus [9] = test: Inhibition of sorbitol accumulation in diabetic rat by acute test dosed at 20 mg/kg; assay type: functional
Rattus norvegicus [10] = test: Inhibition of sorbitol accumulation in diabetic rat by acute test dosed at 50 mg/kg; assay type: functional
Rattus norvegicus [11] = test: Inhibition of sorbitol accumulation in diabetic rat by acute test dosed at 5 mg/kg; assay type: functional
Rattus norvegicus [12] = test: Inhibition of sorbitol accumulation in diabetic rat by acute test dosed at 10 mg/kg; assay type: functional
Rattus norvegicus [13] = test: Inhibition of sorbitol accumulation in diabetic rat by chronic test dosed at 5 mg/kg; assay type: functional
Rattus norvegicus [14] = test: Inhibition of sorbitol accumulation in diabetic rat by chronic test dosed at 20 mg/kg; assay type: functional
Rattus norvegicus [15] = test: Inhibition of fructose accumulation in diabetic rat after oral gavage administration incubated at RT for 60 minutes in pH 4.5 by acute test dosed at 10 mg/kg; assay type: functional; conditions: 1 h
Rattus norvegicus [16] = test: Inhibition of fructose accumulation in diabetic rat after oral gavage administration, pH 4.5 by chronic test dosed at 20 mg/kg; assay type: functional
Rattus norvegicus [17] = test: Inhibition of fructose accumulation in diabetic rat after oral gavage administration, pH 4.5 by chronic test; assay type: functional
Rattus norvegicus [18] = test: Inhibition of fructose accumulation in diabetic rat after oral gavage administration, pH 4.5 by chronic test dosed at 10 mg/kg; assay type: functional
Rattus norvegicus [19] = test: Inhibition of sorbitol accumulation in diabetic rat by chronic test dosed at 10 mg/kg; assay type: functional
Rattus norvegicus [20] = organism: Rattus norvegicus; test: Dose required for inhibition of sorbitol accumulation in diabetic rat by acute test; assay type: functional
Rattus norvegicus [21] = test: Dose required for fructose accumulation in diabetic rat after oral gavage administration incubated at RT for 60 minutes in pH 4.5 by acute test; assay type: functional
Rattus norvegicus [22] = test: Inhibition of fructose accumulation in diabetic rat after oral gavage administration incubated at RT for 60 minutes in pH 4.5 by acute test dosed at 5 mg/kg; assay type: functional; conditions: 1 h
Rattus norvegicus [23] = test: Inhibition of fructose accumulation in diabetic rat after oral gavage administration, pH 4.5 by chronic test dosed at 5 mg/kg; assay type: functional
Rattus norvegicus [24] = test: Inhibition of fructose accumulation in diabetic rat after oral gavage administration incubated at RT for 60 minutes in pH 4.5 by acute test dosed at 3 mg/kg; assay type: functional; conditions: 1 h
Rattus norvegicus [25] = test: Inhibition of sorbitol accumulation in diabetic rat by acute test dosed at 3 mg/kg; assay type: functional

Row | pIC50 [1] | SMILES | inhibition in vivo at 20 mg/kg (Rattus norvegicus [8]) | inhibition in vivo at 20 mg/kg (Rattus norvegicus [9]) | inhibition in vivo at 10 mg/kg (Rattus norvegicus [12]) | inhibition in vivo at 10 mg/kg (Rattus norvegicus [15]) | other results
1 | 7.14 | O=c1ccc(S(=O)(=O)c2cc(Cl)ccc2Cl)n[nH]1 | – | – | – | – | inhibition in vivo at 10 mg/kg (Rattus norvegicus [2]): 36%; inhibition in vivo at 20 mg/kg (Rattus norvegicus [3]): 67%; inhibition in vivo at 10 mg/kg (Rattus norvegicus [4]): 65%; inhibition in vivo at 20 mg/kg (Rattus norvegicus [5]): 79%
2 | 7.64 | O=c1ccc(S(=O)(=O)c2oc3ccccc3c2-c2ccccc2)n[nH]1 | – | – | – | – | –
3 | 7.30 | O=c1ccc(S(=O)(=O)c2c(Cl)cccc2Cl)n[nH]1 | – | – | – | – | inhibition in vivo at 30 mg/kg (Rattus norvegicus [6]): 81%; inhibition in vivo at 20 mg/kg (Rattus norvegicus [7]): 75%
4 | 6.64 | COc1ccc2oc(S(=O)(=O)c3ccc(=O)[nH]n3)cc2c1 | 34% | 49% | – | – | –
5 | 6.32 | O=c1ccc(S(=O)(=O)c2ccc(F)cc2)n[nH]1 | – | – | – | – | inhibition in vivo at 50 mg/kg (Rattus norvegicus [10]): 81%
6 | 7.26 | O=c1ccc(S(=O)(=O)c2cccc(Cl)c2Cl)n[nH]1 | – | 98% | 77% | – | inhibition in vivo at 5 mg/kg (Rattus norvegicus [11]): 55%; inhibition in vivo at 5 mg/kg (Rattus norvegicus [13]): 81%; inhibition in vivo at 20 mg/kg (Rattus norvegicus [14]): 89%
7 | 6.35 | O=c1ccc(S(=O)(=O)c2cc3cccc(Cl)c3[nH]2)n[nH]1 | 44% | 40% | – | – | –
8 | 5.96 | O=c1ccc(S(=O)(=O)c2cc3cc(Cl)ccc3[nH]2)n[nH]1 | – | – | – | – | –
9 | 6.06 | O=c1ccc(S(=O)(=O)c2ccc(F)cc2F)n[nH]1 | – | – | – | – | –
10 | 6.23 | O=c1ccc(S(=O)(=O)c2cc3ccccc3[nH]2)n[nH]1 | 82% | 100% | 75% | 58% | inhibition in vivo at 20 mg/kg (Rattus norvegicus [16]): 50%; inhibition in vivo at 20 mg/kg (Rattus norvegicus [14]): 67%
11 | 6.70 | O=c1ccc(S(=O)(=O)c2cc3cc(Cl)cc(Cl)c3[nH]2)n[nH]1 | – | – | – | – | –
12 | 6.46 | O=c1ccc(S(=O)(=O)c2ccc(Br)cc2)n[nH]1 | – | – | – | – | inhibition in vivo at 50 mg/kg (Rattus norvegicus [10]): 26%
13 | 6.44 | O=S(=O)(c1ccc2ccccc2c1)c1ccc(O)nn1 | – | – | – | – | Inhibition (Rattus norvegicus [17]): 51%; inhibition in vivo at 20 mg/kg (Rattus norvegicus [14]): 74%
14 | – | O=S(=O)(c1ccc(O)nn1)c1ccc(Br)cc1F | – | – | 81% | 67% | –
15 | 6.18 | O=c1ccc(S(=O)(=O)Cc2ccc(Br)cc2F)n[nH]1 | – | – | – | – | –
16 | – | O=S(=O)(c1ccc(Cl)c(Cl)c1)c1ccc(O)nn1 | 85% | 98% | 84% | 60% | –
17 | 7.28 | O=c1ccc(S(=O)(=O)Cc2c(Cl)cccc2Cl)n[nH]1 | – | – | 42% | 24% | –
18 | 6.82 | O=c1ccc(S(=O)(=O)c2cccc3ccccc23)n[nH]1 | 55% | 95% | 88% | 49% | inhibition in vivo at 10 mg/kg (Rattus norvegicus [18]): 31%; inhibition in vivo at 20 mg/kg (Rattus norvegicus [16]): 43%; inhibition in vivo at 20 mg/kg (Rattus norvegicus [14]): 70%; inhibition in vivo at 10 mg/kg (Rattus norvegicus [19]): 60%
19 | 6.27 | O=c1ccc(S(=O)(=O)c2ccccc2F)n[nH]1 | 56% | 91% | 79% | 34% | –
20 | – | O=S(=O)(c1ccc(O)nn1)c1ccc(Cl)cc1Cl | – | – | – | – | ED50 (Rattus norvegicus [20]): 0.8 mg/kg; ED50 (Rattus norvegicus [21]): 3 mg/kg
21 | 7.89 | Cc1ccc2oc(S(=O)(=O)c3ccc(O)nn3)c(C)c2c1 | – | – | 21% | 18% | –
22 | 6.59 | O=S(=O)(Cc1cccc(F)c1F)c1ccc(O)nn1 | 51% | 82% | – | – | –
23 | – | O=S(=O)(c1cc(Cl)cc(Cl)c1)c1ccc(O)nn1 | 49% | 91% | – | – | inhibition in vivo at 5 mg/kg (Rattus norvegicus [22]): 32%; inhibition in vivo at 5 mg/kg (Rattus norvegicus [23]): 30%; inhibition in vivo at 20 mg/kg (Rattus norvegicus [16]): 38%; inhibition in vivo at 5 mg/kg (Rattus norvegicus [11]): 68%; inhibition in vivo at 5 mg/kg (Rattus norvegicus [13]): 63%; inhibition in vivo at 20 mg/kg (Rattus norvegicus [14]): 73%
24 | 7.26 | Cc1c(S(=O)(=O)c2ccc(O)nn2)sc2ccc(Cl)cc12 | – | – | 83% | 51% | inhibition in vivo at 3 mg/kg (Rattus norvegicus [24]): 29%; inhibition in vivo at 3 mg/kg (Rattus norvegicus [25]): 49%
25 | 5.85 | O=c1ccc(S(=O)(=O)c2cc3ccc(F)cc3[nH]2)n[nH]1 | – | – | – | – | –
26 | 7.59 | O=c1ccc(S(=O)(=O)Cc2c(F)cccc2Cl)n[nH]1 | 45% | 42% | – | – | –
27 | – | O=S(=O)(c1ccc(O)nn1)c1ccc(F)cc1Cl | 97% | 106% | 95% | 87% | –
